This note sets out measurements from ChEMBL document CHEMBL4840365, “BMS-813160: A Potent CCR2 and CCR5 Dual Antagonist Selected as a Clinical Candidate” (ACS Med Chem Lett, 2021).

Molecules are shown by their SMILES.

For data set [1], the target named is C-C chemokine receptor type 2 (Homo sapiens, UniProt P41597). In words: Antagonist activity at CCR2 in human whole blood assessed as inhibition of CCL2-induced CD11b upregulation. It is filed as functional, tissue-based.
Data set [2] concerns the target T1, C-C chemokine receptor type 1 (Homo sapiens, UniProt P32246).
T1 sequence (P32246 whole entry): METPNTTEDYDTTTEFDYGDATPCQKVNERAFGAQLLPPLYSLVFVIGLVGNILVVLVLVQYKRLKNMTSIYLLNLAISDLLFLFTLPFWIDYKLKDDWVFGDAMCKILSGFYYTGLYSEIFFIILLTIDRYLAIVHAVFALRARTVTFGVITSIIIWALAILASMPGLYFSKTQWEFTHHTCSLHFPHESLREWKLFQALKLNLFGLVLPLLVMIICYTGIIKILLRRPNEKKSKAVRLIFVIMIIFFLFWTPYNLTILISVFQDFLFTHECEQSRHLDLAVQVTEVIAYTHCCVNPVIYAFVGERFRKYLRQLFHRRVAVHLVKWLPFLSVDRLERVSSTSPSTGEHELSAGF
Kind of data set: Displacement of [125I]MIP-1alpha from CCR1 in human THP-1 cells incubated for 12 hrs by radioligand competition assay. The class given is cell-based. On the technique in general: Loss of bound radioactivity is the signal in a displacement assay; it reports binding, not function.

Data set [3] deals with T2, C-C chemokine receptor type 4 (Homo sapiens, UniProt P51679).
T2 sequence (P51679 whole entry): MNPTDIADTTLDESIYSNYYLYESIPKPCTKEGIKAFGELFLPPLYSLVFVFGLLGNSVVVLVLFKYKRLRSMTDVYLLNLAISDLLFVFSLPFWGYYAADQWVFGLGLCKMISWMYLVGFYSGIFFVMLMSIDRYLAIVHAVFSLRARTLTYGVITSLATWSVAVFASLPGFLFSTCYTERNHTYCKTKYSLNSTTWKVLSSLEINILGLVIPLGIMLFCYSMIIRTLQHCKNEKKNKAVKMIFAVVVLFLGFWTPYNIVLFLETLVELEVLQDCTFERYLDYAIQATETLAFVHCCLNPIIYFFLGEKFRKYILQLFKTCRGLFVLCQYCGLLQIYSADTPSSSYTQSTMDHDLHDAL
Kind of data set: Displacement of [125I]chemokine from CCR4 (unknown origin) by gamma counter method.

The target of data set [4] is T3, C-X-C chemokine receptor type 2 (Homo sapiens, UniProt P25025).
T3 sequence (P25025 whole entry): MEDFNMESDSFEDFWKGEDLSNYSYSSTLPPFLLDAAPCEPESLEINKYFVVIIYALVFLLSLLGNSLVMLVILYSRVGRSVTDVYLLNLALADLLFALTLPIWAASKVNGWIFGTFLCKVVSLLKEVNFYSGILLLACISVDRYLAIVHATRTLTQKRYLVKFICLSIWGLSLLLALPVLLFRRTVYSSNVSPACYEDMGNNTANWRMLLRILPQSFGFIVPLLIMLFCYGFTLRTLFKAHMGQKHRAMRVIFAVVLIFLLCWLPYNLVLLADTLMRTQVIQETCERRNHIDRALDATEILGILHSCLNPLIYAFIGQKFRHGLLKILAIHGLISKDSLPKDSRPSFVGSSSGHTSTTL
In words: Displacement of [125I]-interleukin-8 from human CXCR2 expressed in human pEAK rapid cells incubated for 90 mins by microscintillation counting analysis. The class given is cell-based.

The target in data set [5] is C-C chemokine receptor type 2 (Mus musculus, UniProt P51683). Kind of data set: Displacement of [125I]-CCL2 from mouse CCR2.
Data set [6] in a line: Stability in human liver microsomes assessed as half life at 0.5 uM measured up to 45 mins in the presence of NADPH by LC-MS/MS analysis. It is filed as ADME, Microsome.
Data set [7] in a line: Stability in mouse liver microsomes assessed as half life at 0.5 uM measured up to 45 mins in the presence of NADPH by LC-MS/MS analysis. It is filed as ADME, Microsome.
Data set [8] can be described thus: Stability in rat liver microsomes assessed as half life at 0.5 uM measured up to 45 mins in the presence of NADPH by LC-MS/MS analysis. It is filed as ADME, Microsome. On the technique in general: Microsomes from liver hold many membrane-bound enzymes, among them those of drug oxidation.
For the next data set, the target named is hERG (KCNH2) (Homo sapiens, UniProt Q12809). Kind of data set: Inhibition of human ERG expressed in HEK293 cells at 30 uM by patch-clamp assay relative to control. It is filed as cell-based. As to conditions: HEK293 cells that express hERG.
Data set [9] in a line: Protein binding in human plasma assessed as unbound fraction at 1 uM by equilibrium dialysis method. The class given is ADME, cell-free. For orientation: In equilibrium dialysis only unbound substance equilibrates across the membrane.
Data set [10] is described as follows: Protein binding in mouse plasma assessed as unbound fraction at 1 uM by equilibrium dialysis method. It is filed as ADME, cell-free.
A short description of data set [11]: Protein binding in rat plasma assessed as unbound fraction at 1 uM by equilibrium dialysis method. The class given is ADME, cell-free.
Data set [12] is described as follows: Permeability of the compound at pH 5.5 by PAMPA. It is filed as ADME. As to conditions: read-out: permeability.
The nature of data set [13]: Clearance in mouse at 2 mg/kg, iv. It is filed as ADME, organism-based. As to conditions: in vivo.
Data set [14] is described as follows: Clearance in rat at 2 mg/kg, iv. It is filed as ADME, organism-based. As to conditions: in vivo.
Data set [15] in a line: Clearance in dog at 1 mg/kg, iv. To be noted: in vivo. The class given is ADME, organism-based, Canis lupus familiaris.
Data set [16] is described as follows: Clearance in cynomolgus monkey at 1 mg/kg, iv. The class given is ADME, organism-based, Macaca fascicularis. As to conditions: in vivo.
The nature of data set [17]: Oral bioavailability in mouse at 10 mg/kg. The class given is ADME, organism-based. To be noted: in vivo.
Data set [18] can be described thus: Oral bioavailability in rat at 10 mg/kg. It is filed as ADME, organism-based. As to conditions: in vivo.
A short description of data set [19]: Oral bioavailability in dog at 1 mg/kg. It is filed as ADME, organism-based, Canis lupus familiaris. As to conditions: in vivo.
A short description of data set [20]: Oral bioavailability in cynomolgus monkey at 1 mg/kg. The class given is ADME, organism-based, Macaca fascicularis. As to conditions: in vivo.
Data set [21] in a line: AUC (0 to 24 hrs) in mouse at 10 mg/kg, po. The class given is ADME, organism-based. Also noted: time < 24 hr, route oral, dose 10 mg/kg. As to conditions: in vivo.
Data set [22] can be described thus: AUC (0 to 24 hrs) in rat at 10 mg/kg, po. The class given is ADME, organism-based. On the set-up: time < 24 hr, route oral, dose 10 mg/kg. As to conditions: in vivo.
Data set [23] can be described thus: AUC (0 to 24 hrs) in dog at 1 mg/kg, po. The class given is ADME, organism-based, Canis lupus familiaris. On the set-up: time < 24 hr, route oral, dose 1 mg/kg. As to conditions: in vivo.
A short description of data set [24]: AUC (0 to 24 hrs) in cynomolgus monkey at 1 mg/kg, po. It is filed as ADME, organism-based, Macaca fascicularis. On the set-up: time < 24 hr, route oral, dose 1 mg/kg. To be noted: in vivo.
The next data set relates to Mus musculus. Kind of data set: Antiinflammatory activity against human CCR2 knock-in thioglycollate-induced peritonitis C57BL/6 mouse model assessed as reduction in inflammatory monocyte and macrophage infiltration in peritoneum administered orally twice daily for 2 days with first dose 1 hr prior to thioglycollate challenge. As to conditions: dose 10-160 mg/kg, time 2.0 day. The class given is functional, organism-based.

The species entered for another data set is Homo sapiens. Kind of data set: Selectivity ratio of IC50 for displacement of [125I]-CCL2 from CCR2 in human PBMC cells to IC50 for displacement of [125I]-MIP-1beta from CCR5 in human peripheral T cells. The class given is cell-based.

Sequence of C-C chemokine receptor type 2 (Mus musculus, UniProt P51683) (P51683 whole entry): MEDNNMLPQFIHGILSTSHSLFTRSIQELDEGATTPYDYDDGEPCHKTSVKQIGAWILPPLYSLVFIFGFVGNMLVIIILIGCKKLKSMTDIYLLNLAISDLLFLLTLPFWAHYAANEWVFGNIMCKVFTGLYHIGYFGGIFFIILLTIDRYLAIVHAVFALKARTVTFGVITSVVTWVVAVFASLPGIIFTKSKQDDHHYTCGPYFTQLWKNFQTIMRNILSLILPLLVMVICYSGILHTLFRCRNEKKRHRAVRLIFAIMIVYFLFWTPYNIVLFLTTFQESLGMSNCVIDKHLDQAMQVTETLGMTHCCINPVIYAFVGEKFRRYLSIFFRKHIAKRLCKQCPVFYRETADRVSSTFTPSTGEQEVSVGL
Sequence of hERG (KCNH2) (Q12809 whole entry): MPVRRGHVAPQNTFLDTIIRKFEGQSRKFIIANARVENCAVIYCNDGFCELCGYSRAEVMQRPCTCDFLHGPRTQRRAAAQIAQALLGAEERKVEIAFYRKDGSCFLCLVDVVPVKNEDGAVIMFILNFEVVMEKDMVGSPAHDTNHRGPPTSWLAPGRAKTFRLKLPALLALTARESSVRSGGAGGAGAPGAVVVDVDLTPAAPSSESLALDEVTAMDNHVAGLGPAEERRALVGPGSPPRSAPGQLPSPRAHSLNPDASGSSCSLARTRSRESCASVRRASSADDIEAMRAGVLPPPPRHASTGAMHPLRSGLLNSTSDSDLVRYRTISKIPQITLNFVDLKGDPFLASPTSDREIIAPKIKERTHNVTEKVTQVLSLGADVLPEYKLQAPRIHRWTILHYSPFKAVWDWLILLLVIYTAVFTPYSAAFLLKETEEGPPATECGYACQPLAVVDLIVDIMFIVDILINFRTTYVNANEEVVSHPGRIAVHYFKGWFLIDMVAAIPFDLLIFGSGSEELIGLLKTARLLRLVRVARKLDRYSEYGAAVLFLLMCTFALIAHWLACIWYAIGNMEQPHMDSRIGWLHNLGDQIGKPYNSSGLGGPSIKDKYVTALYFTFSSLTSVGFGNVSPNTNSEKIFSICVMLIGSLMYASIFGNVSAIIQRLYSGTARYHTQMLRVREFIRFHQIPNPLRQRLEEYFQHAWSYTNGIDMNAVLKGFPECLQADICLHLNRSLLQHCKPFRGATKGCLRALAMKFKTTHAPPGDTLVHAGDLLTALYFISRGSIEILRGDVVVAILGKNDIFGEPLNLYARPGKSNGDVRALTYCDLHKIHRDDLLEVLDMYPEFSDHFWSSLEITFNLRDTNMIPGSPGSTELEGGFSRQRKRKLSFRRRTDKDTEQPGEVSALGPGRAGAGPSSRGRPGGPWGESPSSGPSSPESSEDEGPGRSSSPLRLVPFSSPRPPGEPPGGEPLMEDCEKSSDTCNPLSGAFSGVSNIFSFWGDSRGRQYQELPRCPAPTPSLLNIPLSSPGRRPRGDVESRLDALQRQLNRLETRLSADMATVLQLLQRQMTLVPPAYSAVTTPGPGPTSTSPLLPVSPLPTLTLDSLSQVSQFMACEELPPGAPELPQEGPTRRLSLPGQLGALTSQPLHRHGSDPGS
Sequence of C-C chemokine receptor type 2 (Homo sapiens, UniProt P41597) (P41597 whole entry): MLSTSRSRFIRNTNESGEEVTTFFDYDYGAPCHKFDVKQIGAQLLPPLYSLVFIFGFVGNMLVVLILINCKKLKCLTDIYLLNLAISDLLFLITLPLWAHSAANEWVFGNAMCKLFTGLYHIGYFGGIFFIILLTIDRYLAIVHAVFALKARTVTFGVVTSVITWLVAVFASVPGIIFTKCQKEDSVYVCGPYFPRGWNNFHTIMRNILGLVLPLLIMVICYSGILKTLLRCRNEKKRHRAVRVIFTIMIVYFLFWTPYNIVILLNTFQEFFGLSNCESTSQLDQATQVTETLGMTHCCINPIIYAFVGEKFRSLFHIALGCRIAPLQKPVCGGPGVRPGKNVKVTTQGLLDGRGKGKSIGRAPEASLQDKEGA

A word on the IC50: it is the midpoint of a concentration-inhibition curve. Take `CC(=O)N[C@@H]1C[C@H](NC(C)(C)C)CC[C@@H]1N1CC[C@H](Nc2ncnc3ccc(C(F)(F)F)cc23)C1=O`: the IC50 in data set [1] worked out at 2.6 nM.

One may read the half-life as how long it takes for the measured level to halve. The term inhibition denotes the change of the read-out against control, counted positive when it falls. A word on the fraction unbound: it is free concentration divided by total concentration. By clearance is commonly meant the rate of elimination divided by the concentration. What is called bioavailability is the share of a dose that reaches the circulation, judged against a reference dose that is usually intravenous. A word on the AUC(0-t): it is the area under the concentration-time curve up to a stated or last time point. `CC(=O)N[C@@H]1C[C@H](NC(C)(C)C)CC[C@@H]1N1CC[C@H](Nc2ncnc3cc(C(C)(C)C)nn23)C1=O` [BMS-813160]: the IC50 was above 25000 nM in [2], above 40000 nM in data set [3], above 40000 nM in [4] and 45 nM in data set [5]. In addition, the half-life at 0.5 µM is 2.43 h in [6], above 3.33 h in [7] and above 3.33 h in [8]. The compound also had an inhibition at 30 µM against hERG (KCNH2) of 9%. The fraction unbound at 1 µM in data set [9] amounted to 0.71; in [10], 0.58; in [11] it was 0.69. Also, in data set [12], the Papp is 1.9 ×10⁻⁶ cm/s. Besides, the clearance in data set [13] turned out to be 85 mL/min/kg; in data set [14], 50 mL/min/kg; in data set [15], 17 mL/min/kg; in data set [16], 16 mL/min/kg. The bioavailability in data set [17] was found to be 100%; in data set [18], 94%; in data set [19] it was 61%; in data set [20], 63%. In addition, the area under the curve AUC(0-t) at 24 h in data set [21] turned out to be 5.41 µM·h; in data set [22] it was 6.5 µM·h; in [23] it was 1.23 µM·h; in data set [24], 1.3 µM·h. In addition, in the data set with Mus musculus, the Activity result is “Dose-Dependent Effect”. Besides, the Ratio IC50 in the data set listed under Homo sapiens was 2.
